This passage reports EC50 and Emax results from ChEMBL document CHEMBL4725421, “SMARCA2/4 PROTAC for Targeted Protein Degradation and Cancer Therapy” (ACS Med Chem Lett, 2020).

What all share (format): cell-based
The target of experiment [1] is von Hippel-Lindau disease tumor suppressor/SWI/SNF-related matrix-associated actin-dependent regulator of chromatin subfamily A member 4 (Homo sapiens, UniProt P40337+P51532). Briefly: Protac activity at VHL/SMARCA4 in human A549 cells assessed as induction of SMARCA4 bromodomain degradation using anti-SMARCA4 antibody incubated for 18 hrs by WES capillary electrophoresis.
Sequence of von Hippel-Lindau disease tumor suppressor/SWI/SNF-related matrix-associated actin-dependent regulator of chromatin subfamily A member 4 (P51532 whole entry): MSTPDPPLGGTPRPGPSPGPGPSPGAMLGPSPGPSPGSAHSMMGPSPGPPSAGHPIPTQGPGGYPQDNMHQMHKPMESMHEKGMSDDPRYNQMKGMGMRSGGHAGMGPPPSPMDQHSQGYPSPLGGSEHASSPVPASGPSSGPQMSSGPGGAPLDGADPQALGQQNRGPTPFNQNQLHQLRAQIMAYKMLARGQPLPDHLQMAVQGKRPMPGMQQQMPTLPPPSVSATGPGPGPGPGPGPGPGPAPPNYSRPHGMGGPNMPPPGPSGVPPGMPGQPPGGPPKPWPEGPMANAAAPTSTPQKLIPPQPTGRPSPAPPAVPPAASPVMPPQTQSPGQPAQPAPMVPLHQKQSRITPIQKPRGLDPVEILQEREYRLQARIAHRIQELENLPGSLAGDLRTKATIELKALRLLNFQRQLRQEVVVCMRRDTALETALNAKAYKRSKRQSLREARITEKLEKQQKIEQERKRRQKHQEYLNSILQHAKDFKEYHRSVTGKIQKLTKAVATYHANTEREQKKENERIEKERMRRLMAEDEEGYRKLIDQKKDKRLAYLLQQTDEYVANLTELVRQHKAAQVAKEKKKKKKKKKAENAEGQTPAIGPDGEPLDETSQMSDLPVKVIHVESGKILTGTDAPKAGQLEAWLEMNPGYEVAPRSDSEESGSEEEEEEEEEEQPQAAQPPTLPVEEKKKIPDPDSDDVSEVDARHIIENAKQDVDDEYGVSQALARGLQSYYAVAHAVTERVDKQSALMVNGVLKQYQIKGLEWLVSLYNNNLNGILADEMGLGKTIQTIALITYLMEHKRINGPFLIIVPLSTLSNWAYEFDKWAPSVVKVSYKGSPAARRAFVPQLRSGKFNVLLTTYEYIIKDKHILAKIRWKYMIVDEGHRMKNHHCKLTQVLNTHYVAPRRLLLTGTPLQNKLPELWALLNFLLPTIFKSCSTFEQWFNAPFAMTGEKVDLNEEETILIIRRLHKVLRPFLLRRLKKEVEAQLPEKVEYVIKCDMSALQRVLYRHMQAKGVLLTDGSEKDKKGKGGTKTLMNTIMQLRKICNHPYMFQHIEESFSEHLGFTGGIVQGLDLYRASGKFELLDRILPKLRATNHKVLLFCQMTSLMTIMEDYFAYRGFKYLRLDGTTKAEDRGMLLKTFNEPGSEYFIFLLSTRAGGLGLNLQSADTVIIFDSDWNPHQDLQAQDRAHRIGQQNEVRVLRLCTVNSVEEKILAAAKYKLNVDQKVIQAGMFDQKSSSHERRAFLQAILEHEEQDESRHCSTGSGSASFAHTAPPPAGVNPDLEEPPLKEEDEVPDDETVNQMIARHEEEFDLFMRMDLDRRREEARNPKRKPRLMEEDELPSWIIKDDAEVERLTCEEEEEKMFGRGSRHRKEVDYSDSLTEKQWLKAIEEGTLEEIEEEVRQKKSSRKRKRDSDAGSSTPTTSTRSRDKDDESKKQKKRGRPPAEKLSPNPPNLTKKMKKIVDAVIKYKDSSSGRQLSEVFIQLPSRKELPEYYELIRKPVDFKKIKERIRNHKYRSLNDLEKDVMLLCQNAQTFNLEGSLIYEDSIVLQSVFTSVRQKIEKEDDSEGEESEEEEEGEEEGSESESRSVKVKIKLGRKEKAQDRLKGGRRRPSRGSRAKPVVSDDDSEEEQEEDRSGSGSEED
Sequence of von Hippel-Lindau disease tumor suppressor/SWI/SNF-related matrix-associated actin-dependent regulator of chromatin subfamily A member 4 (P40337 whole entry): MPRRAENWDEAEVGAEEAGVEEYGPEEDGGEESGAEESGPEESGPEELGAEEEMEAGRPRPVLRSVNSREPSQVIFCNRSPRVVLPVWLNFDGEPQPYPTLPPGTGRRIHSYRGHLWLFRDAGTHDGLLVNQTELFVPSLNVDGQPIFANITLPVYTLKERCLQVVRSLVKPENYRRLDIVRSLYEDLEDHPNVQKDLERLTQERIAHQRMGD

Experiment [2] concerns the target von Hippel-Lindau disease tumor suppressor/SWI/SNF-related matrix-associated actin-dependent regulator of chromatin subfamily A member 4 (Homo sapiens) (UniProt P51532+P40337). The experiment can be described thus: Protac activity at VHL/SMARCA4 in human A549 cells assessed as induction of SMARCA4 bromodomain degradation using anti-SMARCA4 antibody incubated for 18 hrs by WES capillary electrophoresis relative to initial level.

Experiment [3] has as its target von Hippel-Lindau disease tumor suppressor/SWI/SNF-related matrix-associated actin-dependent regulator of chromatin subfamily A member 2 (Homo sapiens) (UniProt P51531+P40337). The experiment can be described thus: Protac activity at VHL/SMARCA2 in human A549 cells assessed as induction of SMARCA2 bromodomain degradation using rabbit anti-SMARCA2 antibody incubated for 18 hrs by WES capillary electrophoresis relative to initial level.

The target of experiment [4] is von Hippel-Lindau disease tumor suppressor/SWI/SNF-related matrix-associated actin-dependent regulator of chromatin subfamily A member 2 (Homo sapiens, UniProt P40337+P51531). Briefly: Protac activity at VHL/SMARCA2 in human A549 cells assessed as induction of SMARCA2 bromodomain degradation using rabbit anti-SMARCA2 antibody incubated for 18 hrs by WES capillary electrophoresis.
Sequence of von Hippel-Lindau disease tumor suppressor/SWI/SNF-related matrix-associated actin-dependent regulator of chromatin subfamily A member 2 (P51531 whole entry): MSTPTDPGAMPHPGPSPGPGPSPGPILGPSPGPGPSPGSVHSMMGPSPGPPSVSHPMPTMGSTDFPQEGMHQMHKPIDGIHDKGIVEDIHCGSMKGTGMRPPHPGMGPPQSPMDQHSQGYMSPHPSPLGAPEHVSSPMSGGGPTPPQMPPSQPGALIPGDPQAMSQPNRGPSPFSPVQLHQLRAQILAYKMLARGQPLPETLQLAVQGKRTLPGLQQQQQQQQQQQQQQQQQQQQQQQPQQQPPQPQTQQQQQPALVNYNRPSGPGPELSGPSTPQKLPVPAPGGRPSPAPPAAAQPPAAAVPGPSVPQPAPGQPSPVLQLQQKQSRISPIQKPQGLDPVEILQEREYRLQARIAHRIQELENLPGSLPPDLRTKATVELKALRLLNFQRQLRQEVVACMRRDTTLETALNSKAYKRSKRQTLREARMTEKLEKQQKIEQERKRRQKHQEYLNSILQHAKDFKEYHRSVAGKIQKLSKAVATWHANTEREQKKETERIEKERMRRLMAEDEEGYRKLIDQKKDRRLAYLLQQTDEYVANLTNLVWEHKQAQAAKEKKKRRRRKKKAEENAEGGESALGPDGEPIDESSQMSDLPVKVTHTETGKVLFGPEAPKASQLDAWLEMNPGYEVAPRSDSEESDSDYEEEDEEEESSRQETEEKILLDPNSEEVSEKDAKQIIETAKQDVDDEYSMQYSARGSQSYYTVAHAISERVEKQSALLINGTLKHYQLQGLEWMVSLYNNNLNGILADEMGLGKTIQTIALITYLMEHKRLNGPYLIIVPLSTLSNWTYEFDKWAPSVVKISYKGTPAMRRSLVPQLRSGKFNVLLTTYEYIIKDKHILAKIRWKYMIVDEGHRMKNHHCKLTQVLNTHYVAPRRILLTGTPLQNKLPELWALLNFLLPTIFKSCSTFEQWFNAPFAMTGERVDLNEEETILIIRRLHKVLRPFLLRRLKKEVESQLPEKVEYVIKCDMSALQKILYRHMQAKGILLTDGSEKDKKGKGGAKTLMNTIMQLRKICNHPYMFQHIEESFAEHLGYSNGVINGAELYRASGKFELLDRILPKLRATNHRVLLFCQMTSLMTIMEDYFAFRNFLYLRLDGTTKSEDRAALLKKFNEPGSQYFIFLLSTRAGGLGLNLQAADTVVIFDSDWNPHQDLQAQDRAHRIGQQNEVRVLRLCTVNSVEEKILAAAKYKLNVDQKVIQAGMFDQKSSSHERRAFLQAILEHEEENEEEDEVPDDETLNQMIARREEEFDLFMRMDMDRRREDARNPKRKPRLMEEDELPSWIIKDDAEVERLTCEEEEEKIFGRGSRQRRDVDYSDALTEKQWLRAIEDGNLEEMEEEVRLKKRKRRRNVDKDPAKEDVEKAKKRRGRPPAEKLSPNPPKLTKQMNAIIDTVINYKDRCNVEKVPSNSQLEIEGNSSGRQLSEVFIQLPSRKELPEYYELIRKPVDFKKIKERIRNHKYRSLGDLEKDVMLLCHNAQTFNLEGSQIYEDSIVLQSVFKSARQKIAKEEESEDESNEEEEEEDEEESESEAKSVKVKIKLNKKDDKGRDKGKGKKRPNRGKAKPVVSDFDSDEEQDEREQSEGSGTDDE
Sequence of von Hippel-Lindau disease tumor suppressor/SWI/SNF-related matrix-associated actin-dependent regulator of chromatin subfamily A member 2 (P40337 whole entry): as the sequence (P40337 whole entry) above

For orientation: EC50 means the concentration at which the effect is half-maximal. One may read the Emax as the maximal effect, on the per cent scale that the assay sets.

The structures appear in SMILES notation.

Sequence of von Hippel-Lindau disease tumor suppressor/SWI/SNF-related matrix-associated actin-dependent regulator of chromatin subfamily A member 4 (Homo sapiens) (P40337 whole entry, looked up): as the sequence (P40337 whole entry) above
Sequence of von Hippel-Lindau disease tumor suppressor/SWI/SNF-related matrix-associated actin-dependent regulator of chromatin subfamily A member 4 (Homo sapiens) (P51532 whole entry, looked up): as the sequence (P51532 whole entry) above
Sequence of von Hippel-Lindau disease tumor suppressor/SWI/SNF-related matrix-associated actin-dependent regulator of chromatin subfamily A member 2 (Homo sapiens) (P40337 whole entry, looked up): as the sequence (P40337 whole entry) above
Sequence of von Hippel-Lindau disease tumor suppressor/SWI/SNF-related matrix-associated actin-dependent regulator of chromatin subfamily A member 2 (Homo sapiens) (P51531 whole entry, looked up): as the sequence (P51531 whole entry) above

For `Cc1ncsc1-c1ccc(CNC(=O)[C@@H]2C[C@@H](O)CN2C(=O)[C@@H](NC(=O)C2(F)CC2)C(C)(C)C)c(OCCc2ccc(CN3CCN(c4cc(-c5ccccc5O)nnc4N)CC3)c(F)c2)c1`, the concentration giving a half-maximal response (EC50) in experiment [1] worked out at 33 nM; in experiment [4], 55 nM. Further, the Emax in experiment [2] and in experiment [3] was 95% each time.
As for `Cc1ncsc1-c1ccc(CNC(=O)[C@@H]2C[C@@H](O)CN2C(=O)[C@@H](NC(=O)C2(F)CC2)C(C)(C)C)c(OCCc2ccc(CN3CCN(c4cc(-c5ccccc5O)nnc4N)CC3)cc2)c1`, the EC50 in experiment [1] worked out at 117 nM; in experiment [4], 67 nM. In addition, the Emax is 93% in experiment [2] and 91% in experiment [3].
Taken in the same sequence, the figures for `Cc1ncsc1-c1ccc(CNC(=O)[C@@H]2C[C@@H](O)CN2C(=O)[C@@H](NC(=O)C2(F)CC2)C(C)(C)C)c(OCCCOc2ccc(CN3CCN(c4cc(-c5ccccc5O)nnc4N)CC3)cc2)c1` were 16 nM, 26 nM, 100% and 99%.
Taken in the same sequence, the figures for `Cc1ncsc1-c1ccc(CNC(=O)[C@@H]2C[C@@H](O)CN2C(=O)[C@@H](NC(=O)C2(F)CC2)C(C)(C)C)c(OCCCc2ccc(CN3CCN(c4cc(-c5ccccc5O)nnc4N)CC3)cc2)c1` were 25 nM, 58 nM, 92% and 90%.
Consider `Cc1ncsc1-c1ccc(CNC(=O)[C@@H]2C[C@@H](O)CN2C(=O)[C@@H](NC(=O)C2(F)CC2)C(C)(C)C)c(OCCOc2ccc(CN3CCN(c4cc(-c5ccccc5O)nnc4N)CC3)cc2)c1`, for which the EC50 in experiment [1] came out at 16 nM; in experiment [4], 12 nM. Besides, the Emax in experiment [2] was determined as 97%; in experiment [3] it was 98%.
With `Cc1ncsc1-c1ccc(CNC(=O)[C@@H]2C[C@@H](O)CN2C(=O)[C@@H](NC(=O)C2(F)CC2)C(C)(C)C)c(OCCc2ccc(OCCN3CCN(c4cc(-c5ccccc5O)nnc4N)CC3)cc2)c1`, the concentration for a half-maximal effect (EC50) in experiment [1] was found to be 26 nM; in experiment [4] it was 41 nM. The maximal response (Emax) in experiment [2] and in experiment [3] was 99% in each case.
